Here are results for 1 molecule from patent US20130267757A1, “ANTH[…] USE AS RADIOS[…] CANCER TREATMENT” (Sensit Science Ltd., priority 2010, published 2013).

In series [1] the test system is U87 Tumors. The settings on record: wavelength of 665 nm; with or without radiation. As for the experimental part: U87 Tumors were resected when tumors reached end-point (1500 mm^3), minced, and digested in 4 mg/ml collagenase III, 2 mg/ml hyaluronidase, and 2 mg/ml collagenase IV in serum free DMEM, for 20 min, at 37° C. Cells were then filtered through a 40 μm sieve, and washed twice with PBS to obtain single U87 cell suspension.
The single U87 tumor cell suspensions were then acquired on Cyan ADP flow cytometer (Beckman Coulter) and analyzed with Summit (Beckman Coulter) software.
The FL8 channel, (wavelength of 655/20 nm) was used to detect differences between positive and negative cells. From each sample, at least 50,000 cells were acquired.
(§1) These studies were aimed at assessing the localization of radiosensitizing agents and were conducted by two complementary techniques; the first in implanted U87 human glioma tumors using UV lamp and the second in extracted U87 tumors using Flow Cytometry techniques.

The test system of series [2] is PANC01 human pancreatic adenocarcinoma cells. The experiment in a line: PANC01 human pancreatic adenocarcinoma tumors in CB.17 SCID mice, tumor volume (Example 4C). It is filed as in vivo. The settings on record: 10 mg/kg + 10 Gy radiation. The procedure:
Mice were injected with the radiosensitizing agent, and immediately after were placed in the dark. Radiation was conducted 2 hours after radiosensitizing administration. […] Tumor volume was measured prior to the treatment and thereafter twice weekly.

In series [3] the test system is HT29-colon cancer grown in monolayer. Kind of series: Example 2B AlamarBlue proliferation, HT29 linear cells. The class given is cell-based, human. The note with it: 0.1-2 μM; single dose 10 Gy; FIG. 6A. The procedure:
(§2) Linear cell (Lin) HT29 and MCF7 human breast carcinoma, were obtained from the American Type Culture Collection (ATCC).
(§3) Cells were cultured in Dulbecco's Modified Eagle Medium (DMEM), supplemented with 10% fetal calf serum (FCS) and antibiotics.
(§4) Three photosensitizing agents were used, Hypericin (Hy), Tetrabromo hypericin (TBrHy), and hypericin tetrasulfonic acid (HyTS) in the following concentrations: 0.1 μM, 1 μM and 2 μM. Drugs were protected from light for all time. Control cells were treated with 0.1% DMSO (vehicle).
(§5) Linear and CSC were exposed to 3 Gy irradiation daily for four consecutive days or to a single dose of 10 Gy radiation. Radiation was initiated one day after treatment with the hypericin or hypericin derivatives.
(§6) Linear and CSCs were cultured in a 96 plate in triplicates. Each cell line was treated with the three radiosensitizing agents in the indicated doses. In addition culture cells were exposure to radiation. A day before the irradiation, the radiosensitizing agents were added to the culture. Cells were allowed to grow over a period of 5 days using the method of AlamarBlue™ reduction assay. 10% Alamar Blue solution added to each well. Cells viability was measured using Eliza Reader at two different wavelengths: 570 nm and 600 nm, and the appropriate equation was calculated to reflect cell viability.

Series [4] has as its system HT29-colon cancer grown as cancer stem cells spheres. The experiment in a line: Example 2B AlamarBlue proliferation, HT29 cancer stem cells. The class given is cell-based, human. The settings on record: 0.1-2 μM; single dose 10 Gy; FIG. 6B; compared with monolayer. As for the experimental part:
as §2
(§7) Enrichment of the cancer stem cells (CSCs) population was done by incubating linear cells in a DMEM/F-12 (HAM) 1:1 medium supplement with Insulin-Transferin-Soldium Selenite, and growth factors specific for each cell line. Cells considered enriched for CSCs after 10-15 days in CSCs medium.
as §4, §5
Linear and CSCs were cultured in a 96 plate in triplicates. Each cell line was treated with the three radiosensitizing agents in the indicated doses. In addition culture cells were exposure to radiation. A day before the irradiation, the radiosensitizing agents were added to the culture. […] Cells viability was measured using Eliza Reader at two different wavelengths: 570 nm and 600 nm, and the appropriate equation was calculated to reflect cell viability.
(In general: Resazurin is reduced to fluorescent resorufin, in cell work by metabolically active cells.)

Series [5] has as its system MCF-7 human breast carcinoma. Kind of series: AlamarBlue cell proliferation assay after radiosensitizer and irradiation, MCF-7 monolayer. The class given is cell-based. The settings on record: 1 μM. The procedure: (§8) Human breast carcinoma: MCF-7 (ATCC number: HTB-22); MDA-MB-231 (ATCC number: HTB-26)
(§9) Human colorectal cancer cell line: HT-29 (ATCC number: HTB-38). All cells were cultured routinely in DMEM supplemented with 10% FCS.
(§10) Three hypericin derivatives were used in the assay, including hypericin tetrasulfonic acid (HyTS); Tetrabromo hypericin (TBrHy); and Hexamethyl hypericin (HxMeHy). In addition, as control, hypericin and/or Photofrin II as well as cells exposed only to radiation, i.e. without a radiosensitizing agent.
(§11) The hypericin, hypericin derivatives and photofrin II were used in doses ranging from 0.1 μM up to 2 μM. All compounds were dissolved in DMSO, and were protected from light.
(§12) In all cases, control and tumor cells were exposed to ionizing radiation (Siemens X-ray device with 250 kV or with LINAC) at 24 h after the incubation with Hyperecin, Photofrin II or Hypericin derivatives indicated below. The total delivered radiation dose was a 10 Gy, provided in a single irradiation session on the second day of culture. The response of the tumor to the radiation treatment was evaluated by determining growth delay using the described cell proliferation assay. […]
(§13) Unless indicated otherwise, the tumor cell lines were cultured at a starting density of 1×10^5 cells/mL in DMEM and 10% FCS. […] Absorbance was measured at 570 nm and 600 nm using a micro-titer plate reader. […]

Series [6] relates to MCF-7 human breast carcinoma grown as cancer stem cells spheres. Kind of series: Example 2B AlamarBlue proliferation, MCF7 cancer stem cells. The class given is cell-based. The procedure: as §2, §7, §4, §5, §6
The next series deals with U87 human glioma tumors. The settings on record: 10 mg/kg + 10 Gy radiation; CB.17 SCID mice; FIG. 8A. As for the experimental part: U87 human glioma cells at a concentration of 5×10^6 were implanted into the flank of eight to ten weeks old CB.17 SCID mice (n=4-5 mice per group).
Treatment was initiated when the tumors reached a size of 100-150 mm^3, and included the following treatment groups:
Specifically, mice were injected with the radiosensitizing agent, and immediately placed in the dark. Radiation was initiated two hours after radiosensitizing administration. Mice were kept in the dark for the following 72 hours, in order to minimize the effect of light on the traces of the radiosensitizing agents. Tumor volume was monitored prior to treatment and thereafter twice weekly.

In series [7] the test system is U87 Tumors. The note with it: during the 2 hours prior to radiation. The procedure:
U87 Tumors were implanted subcutaneously in nude mice and then examined under a UV light lamp and the colour intensity was visualized.
as §1

Series [8] relates to MD-MB-231-human breast carcinoma. Kind of series: AlamarBlue cell proliferation assay after radiosensitizer and irradiation, MDA-MB-231. It is filed as cell-based. The settings on record: 1 μM; FIG. 4C, P<0.05. The procedure: as §8, §9, §10, §11, §12, §13
In series [9] the test system is MCF-7 human breast carcinoma grown as monolayer. Kind of series: Example 2B AlamarBlue proliferation, MCF7 linear cells. The class given is cell-based. The settings on record: 0.1-2 μM; single dose 10 Gy; FIG. 6C. As for the experimental part:
as §2, §3, §4, §5, §6

Series [10] deals with HT29-human colon carcinoma. Kind of series: AlamarBlue cell proliferation assay after radiosensitizer and irradiation, HT29. The class given is cell-based. The settings on record: 1 μM; FIG. 4E, P<0.05. As for the experimental part: as §9, §10, §11
In all cases, control and tumor cells were exposed to ionizing radiation (Siemens X-ray device with 250 kV or with LINAC) at 24 h after the incubation with Hyperecin, Photofrin II or Hypericin derivatives indicated below. The total delivered radiation dose was a 10 Gy, provided in a single irradiation session on the second day of culture. The response of the tumor to the radiation treatment was evaluated by determining growth delay using the described cell proliferation assay.
Cell proliferation assay using AlamarBlue
as §13

For series [11] the following is noted: brain sections of treated mice, fluorescence 550-650 nm.
Series [12] in a line: Treatment toxicity: body weight and overall behaviour (Example 4A). The settings on record: 10 mg/kg. The class given is in vivo, nude mice. The procedure: Mice injected with 5% DMSO vehicle served as the control untreated group. Immediately after the injections, the mice were placed in the dark. For each group of radiosensitizing agent treated mice, half of the treated mice were then treated with a 10 Gy dose of radiation, initiated two hours after the administration of the radiosensitizing agents.
Treatment toxicity was evaluated using two parameters, (i) measuring mice's body weight and (ii) monitoring overall mice behaviour, both parameters were measured twice weekly.

Regarding `Cc1c(S(=O)(=O)O)c(O)c2c(=O)c3c(O)c(S(=O)(=O)O)c(O)c4c5c(O)c(S(=O)(=O)O)c(O)c6c(=O)c7c(O)c(S(=O)(=O)O)c(C)c8c1c2c(c34)c(c78)c65` [HyTS, hypericin tetrasulfonic acid], the “fluorescent signal of tumor cells by flow cytometry” value with U87 Tumors [1] was “fluorescent signal was detected”. Also, in series [2], the “anti-tumor activity in PANC1 pancreatic tumors compared with U87” value is on record as “somewhat better activity”. The “tumor volume of PANC1 pancreatic tumors, agent with radiation” value in [2] (CB.17 SCID mice, FIG. 8B) is “anti-tumor activity”. The “radiosensitizing HT-29 colon cancer cells (monolayer)” value in series [3] was “effective in radiosensitizing”. The “sensitivity of HT-29 colon cancer stem cells to treatment” value in series [4] was “more sensitive”. In addition, the “radiosensitizing effect on breast cancer MCF-7 (proliferation on day 5)” value in series [5] (FIG. 4D, P<0.01) is given as “statistically significantly effective”. The “proliferation of MCF-7 breast cancer cells grown as monolayer (AlamarBlue, fold increase)” value in [5] (irradiation 10 Gy, 5 days post radiation, FIG. 3C, P<0.03) is reported as “statistically inhibited the proliferation”. Also, the “inhibiting proliferation of MCF7 human breast cancer cells grown as stem cells” value in [6] (0.1-2 μM, single dose 10 Gy, FIG. 6D) was “effective in inhibiting the proliferation”. Moreover, the “effect in MCF7 cancer stem cells compared with monolayer” value in series [6] (FIGS. 6C and 6D) is “more pronounced”. For the same molecule, the “tumor volume of U87 tumors, agent with radiation” value in the series with U87 human glioma tumors was “anti-tumor activity”. Moreover, the “colour of tumors under UV light” value with U87 Tumors [7] is “colored in red”. Besides, the “radiosensitizing effect on breast cancer MD-MB-231 (proliferation on day 5)” value in series [8] was “statistically significantly effective”. Moreover, the “inhibiting proliferation of MCF7 human breast cancer cells grown as monolayer” value in [9] is listed as “effective in inhibiting the proliferation”. In [10], the “radiosensitizing effect on colon cancer HT29 (proliferation on day 5)” value is recorded as “effective radiosensitizing agents”. Further, in series [11], the BBB penetration entry is recorded as “does not penetrate the BBB”. Besides, the tolerability of treatment result in series [12] (alone or in combination with radiation, nude mice) is reported as “well tolerated”. Besides, in series [12] (measured twice weekly), the “change in mice body weight and mice behaviour” value is recorded as “no significant change”.
